Laboratory results as given in publication PMC8830292, “Anti-Toxoplasma gondii effect of lupane-type triterpenes from the bark of black alder (Alnus glutinosa) and identification of a potential target by reverse docking” (Parasite, 2022).

What was measured:
[1] = Solubility in DMSO; format: physicochemical
Experimental: Stock solutions at 1 mg/mL were prepared in cell culture grade dimethyl sulfoxide (DMSO, PanReac AppliChem, Darmstadt, Germany). Subsequent dilutions were made in a culture medium identical to the one used for tachyzoite maintenance.

[2] = in vitro; details: African green monkey
Experimental: (§1) Vero cells (host cells of T. gondii tachyzoite) were purchased at ATCC (reference CCL-81), grown in Iscove Modified Dulbecco Media (IMDM) GlutaMAX medium (Gibco) supplemented with 5% decomplemented fetal calf serum with 1% penicillin/streptomycin. The culture was incubated at 37 °C and 5% CO2. Toxoplasma gondii tachyzoites (strain RH, type I) were grown in the same conditions as Vero cells except that the concentration of fetal calf serum was 2%.
(§2) The in vitro cytotoxicity was evaluated on Vero cell cultures using Uptiblue® viable cell-counting assay (Interchim, Montluçon, France). CC50 assays were performed in 96-well plates containing 20,000 Vero cells and 200 μL of culture medium identical to the one used for Vero cell maintenance. After 4 h of incubation, wells were emptied. The IC50 was performed with 100 μL of solutions containing the tested compounds with a final concentration range of 0–80 μM. After 72 h of incubation, wells were washed with 100 μL of phosphate-buffered saline (PBS) (Sigma-Aldrich, Saint-Quentin-Fallavier, France). Then, 100 μL of IMDM culture medium supplemented with 2% (v/v) of calf fetal serum and 10% (v/v) of Uptiblue® were added to each well. Plates were placed at 37 °C and 5% of CO2 for 3 h. Spectrophotometric measures were performed at 570 nm and corrected at 600 nm on an AMR-100 spectrophotometer (AllSheng, Hangzhou, China).

[3] = tested on: Toxoplasma gondii tachyzoites (strain RH, type I); experiment: Half maximal inhibitory concentration (IC50) on T. gondii (enzyme immunoassay); format: cell-based; details: for Selectivity index (SI): SI = CC50/IC50 (Vero cells / T. gondii); for IC50: Toxoplasma gondii, T. gondii RH in Vero cells, 72 h
Experimental: (§3) All the experiments were performed in triplicate. Compound screening was performed at 10 μM in 96-well plates. Thus, 20,000 Vero cells contained in 200 μL of culture medium were filled in each well and left to adhere for 4 h at 37 °C and 5% of CO2. Then, 50,000 parasites contained in 50 μL of culture medium were filled, followed by 3 h of incubation in the same conditions. Wells were then emptied and 100 μL of solutions containing each drug at a final concentration of 10 μM were added. Incubation continued for 72 h.
(§4) The IC50 assays were processed in the same conditions as previously described. Dilutions were performed in a culture medium. The IC50 was determined using an adapted protocol from Doliwa et al.. Parasites and cells were first fixed with 100 μL of cold methanol for 5 min at −20 °C. Cells were then rehydrated with 100 μL of PBS at room temperature. Wells were then emptied and filled with 60 μL of a solution of anti-T. gondii rabbit antibody (Ref. 9070-0556, Biorad) diluted at 1/1000. After 1 hour of incubation at 37 °C, wells were washed three times with PBS, and 60 μL of anti-rabbit IgG horseradish conjugated goat antibody (Ref. 170-6515, Bio-Rad) at 1/1000 were added, followed by 1 h of incubation at 37 °C. The wells were washed three more times, and 200 μL of a solution of o-phenylenediamine dihydrochloride (Sigma, France) was added. After 15 min at room temperature, the enzymatic reaction was stopped by the addition of 50 μL of hydrochloric acid (HCl) 3 M. To finish, 200 μL of each well were transferred to a new well and a spectrophotometer reading was performed at 492 nm, corrected at 630 nm. Each experiment was performed with three controls: control with host cells alone, control with host cells and parasites without the drug for parasite multiplication, and control with host cells with parasites and pyrimethamine at 1 μM.

[4] = tested on: Plasmodium falciparum K1 strain; parameters: method as in PMID 21438586; details: cited from earlier work
[5] = tested on: Toxoplasma gondii tachyzoites (strain RH, type I); experiment: Screening at 10 μM: T. gondii parasite growth inhibition in Vero cells (enzyme immunoassay); format: cell-based; details: for inhibition at 10 µM / parasite growth inhibition: 72 h, triplicate, 10 μM
Experimental: as §3, §4

[6] = tested on: T. gondii; parameters: method as in PMID 23776166; details: in vitro growth of T. gondii; cited from earlier work
[7] = tested on: P. falciparum; parameters: method as in PMID 11239932; details: P. falciparum growth; cited from earlier work
[8] = tested on: T. gondii; parameters: method as in PMID 20441162; details: cited from earlier work
[9] = tested on: Vero cells; parameters: method as in PMID 20441162; details: cited from earlier work
[10] = tested on: Vero cells; experiment: Cytotoxicity evaluation, Uptiblue viable cell-counting assay
Experimental: as §1, §2

[11] = tested on: L. donovani; parameters: method as in earlier work; details: 50 μM; cited from earlier work
[12] = tested on: Vero cells; details: cited from earlier work

With `C=C(C)[C@@H]1CC[C@]2(C)CC[C@]3(C)[C@H](CC[C@@H]4[C@@]5(C)CCC(=O)C(C)(C)[C@@H]5CC[C@]43C)[C@@H]12` [Lupenone, lupenone] the “solubility in DMSO” value [1] was “not soluble in DMSO”.
For `C=C(C)C1CCC2(C(=O)OC)CCC3(C)C(CCC4C5(C)CCC(=O)C(C)(C)C5CCC43C)C12` (stereo not drawn) [Betulonic acid methyl ester (8), betulonic acid methyl ester], the CC50 at 72 h [2] was greater than 80 µM, the “Selectivity index (SI)” value [3] was greater than 25.8 and the IC50 [3] was 3.1 ± 0.4 µM.
In the case of `C=C(C)[C@@H]1CC[C@]2(CO)CC[C@]3(C)[C@H](CC[C@@H]4[C@@]5(C)CCC(=O)C(C)(C)[C@@H]5CC[C@]43C)[C@@H]12` [Betulone (4), betulone], the CC50 at 72 h [2] is reported as greater than 80 µM, the “Selectivity index (SI)” value [3] is reported as greater than 29.6 and the “Selectivity index (SI)” value ([3]; listed as betulone) is reported as “greater than 29”. The IC50 [3] was 2.7 ± 1.2 µM, the IC50 [4] was 3 µM and the inhibition at 10 µM ([5]; Toxoplasma gondii, Vero) was 99%.
In the case of `Oc1cc(Cl)ccc1Oc1ccc(Cl)cc1Cl` [triclosan], the IC50 [6] is given as 3 µM and the IC50 [7] is given as 1 µM.
For `CC1(C)CC[C@]2(C(=O)O)CC[C@]3(C)C(=CC[C@@H]4[C@@]5(C)C[C@@H](O)[C@H](O)C(C)(C)[C@@H]5CC[C@]43C)[C@@H]2C1` [maslinic acid], the LD50 [8] is listed as 53.8 µM and the LD50 [9] is listed as 236.6 µM.
In the case of β-sitostenone [β-sitostenone (9)], the parasite growth inhibition [5] is reported as “did not show any relevant activity” and the parasite growth inhibition ([5]; listed as β-sitostenone) is reported as “no specific activity”.
In the case of `C=C(C)[C@@H]1CC[C@]2(C=O)CC[C@]3(C)[C@H](CC[C@@H]4[C@@]5(C)CC[C@H](O)C(C)(C)[C@@H]5CC[C@]43C)[C@@H]12` [Betulinaldehyde (2), betulinaldehyde], the CC50 at 72 h ([2]; Vero cells (ATCC CCL-81)) is reported as greater than 80 µM, the “Selectivity index (SI)” value [3] is reported as greater than 15.7 and the IC50 [3] is reported as 5.1 ± 0.6 µM. It also gave an inhibition at 10 µM ([5]; Toxoplasma gondii, Vero) of 93%.
In the case of `CCc1nc(N)nc(N)c1-c1ccc(Cl)cc1` [Pyrimethamine (10), pyrimethamine, reference compound], the CC50 at 72 h ([2]; Vero cells (ATCC CCL-81)) is reported as 27.7 µM, the cytotoxicity ([10]; 10 μM) is reported as “cytotoxic” and the “Selectivity index (SI)” value [3] is reported as 38.0. It also gave an IC50 [3] of 0.7 ± 0.2 µM and an inhibition at 1 µM ([5]; Toxoplasma gondii, Vero, 1 μM) of 78%.
In the case of `C=C(C)[C@@H]1CC[C@]2(C(=O)O)CC[C@]3(C)[C@H](CC[C@@H]4[C@@]5(C)CC[C@H](O)C(C)(C)[C@@H]5CC[C@]43C)[C@@H]12` [Betulinic acid (3), betulinic acid], the “inhibition of L. donovani” value [11] is listed as 39.8%, the CC50 at 72 h [2] is listed as greater than 80 µM and the “Selectivity index (SI)” value [3] is listed as greater than 9.6. For the same compound, the IC50 [3] was 8.3 ± 2.7 µM and the inhibition at 10 µM ([5]; Toxoplasma gondii, Vero) was 49%.
For `C=C(C)[C@@H]1CC[C@]2(C)CC[C@]3(C)[C@H](CC[C@@H]4[C@@]5(C)CC[C@H](O)C(C)(C)[C@@H]5CC[C@]43C)[C@@H]12` [Lupeol (5), lupeol], the CC50 at 72 h ([2]; Vero cells (ATCC CCL-81)) was greater than 80 µM, the “Selectivity index (SI)” value [3] was greater than 5.8 and the IC50 [3] was 13.8 ± 4 µM. For the same compound, the inhibition at 10 µM ([5]; Toxoplasma gondii, Vero) was 60%.
In the case of `C=C(C)[C@@H]1CC[C@]2(CO)CC[C@]3(C)[C@H](CC[C@@H]4[C@@]5(C)CC[C@H](O)C(C)(C)[C@@H]5CC[C@]43C)[C@@H]12` [Betulin (1), betulin], the “inhibition of L. donovani” value [11] is listed as 35.0%, the CC50 at 72 h [2] is listed as greater than 80 µM and the “Selectivity index (SI)” value [3] is listed as greater than 6.0. The IC50 [3] was 13.3 ± 7.3 µM, the inhibition at 10 µM ([5]; Toxoplasma gondii, Vero) was 44% and the CC50 [12] was 164 µM.
For `C=C(C)C1CCC2(C(=O)O)CCC3(C)C(CCC4C5(C)CCC(=O)C(C)(C)C5CCC43C)C12` (stereo not drawn) [Betulonic acid (7), Betulonic acid], the “inhibition of L. donovani” value [11] is listed as 97.6%, the CC50 at 72 h ([2]; Vero cells (ATCC CCL-81)) is listed as greater than 80 µM and the cytotoxicity ([10]; 80 μM on Vero cells) is listed as “without cytotoxicity”. For the same compound, the “Selectivity index (SI)” value [3] was greater than 18.6 and the IC50 [3] was 4.3 ± 1.4 µM.
